Tests used:
[1] = system: weed; experiment: Membrane Diffusion Raft Trials, weed control; type: in vivo, grass-like algal growth common in sea water; settings: membrane test, average 15 to 16 weeks of immersion
Source text: (§1) 1). FIELD TESTS: - Membrane Diffusion Raft Trials
(§2) A specially constructed raft provides three types
(§3) a). Waterline Well illuminated, aerated
(§4) b). Flats Poorly illuminated deeper
(§5) A known quantity of the test compound is placed into a cylindrical plastic container whose open end is then covered with a membrane of known porosity; the complete unit is attached to the appropriate raft panel so that the poison can freely diffuse into the free water layer around it. Regular inspections, recording time and quantity of settlement, allow a life history of each membrane trial to be constructed. Each raft panel contains 35 compounds to be evaluated together with 4 standard poisons and 1 non-toxic membrane for control.
(§6) The behavior on the raft can thus be compared with that of the standard poisons and the non-toxic control. At normal loading a membrane over the standard poisons would be free from macro-fouling after six months immersion. Compounds showing selective effects against restricted groups of fouling organisms also show up by membrane testing.
(§7) After the completion of membrane tests the contents of all containers are checked visually for poison loss. An empty container indicates an unacceptably high solubility for long term effectiveness; where the poison loss is low the compound is tested in one of two ways depending on its performance against fouling.
(§8) In the membrane tests, the results of approximately 140 compounds evaluated appear in Table 1. The symbols "0" means no detactable effect, the symbol "+" indicates the compound is active against the given fouling organism, and the symbol "++" means that the compound appears to be effective over at least about a four month period for essentially preventing fouling activity by the given organism. In the Table, "weed" designates a grass-like algal growth common in sea water.
(§9) Membrane Test results are of an average 15 to 16 weeks of immersion,
(§10) ^a 0 = none, + = some, + + = effective.

[2] = Amount of toxicant remaining in the test container after membrane diffusion raft tests; type: physicochemical; design: key: 0: empty or trace; +: some; + +: ample; settings: after completion of membrane diffusion raft tests
Source text: as §5, §7
^b Amount of toxicants remaining in the test container after the
completion of the membrane diffusion raft tests: 0 = empty or trace, + =

[3] = system: barnacle; experiment: Membrane Diffusion Raft Trials, barnacle control; type: in vivo, barnacles; settings: membrane test, average 15 to 16 weeks of immersion
Source text: as §1, §2, §3, §4, §5, §6, §7, §8, §9, §10
^f The 1975 Spring settlement of barnacles was very meager and the […]

| SMILES | Weed Control [1] | Contents at the end of test (amount of toxicants remaining in the test container) [2] | Barnacle Control [3] |
| --- | --- | --- | --- |
| CCCCCCCCCCCCn1sc(Br)c(Br)c1=O [Example 97] | 0 | + + | 0 |
| Cc1c(Cl)sn(-c2ccc(Oc3ccccc3)cc2)c1=O [Example 124] | 0 | + + | 0 |
| CCCCc1ccc(-n2sc(Cl)c(Cl)c2=O)cc1 [Example 83] | 0 | + + | + |
| Cc1csn(-c2cccc(Cl)c2)c1=O [Example 138] | + | + + | 0 |
| Cc1c(Cl)sn(-c2ccc(Cl)c(C(F)(F)F)c2)c1=O [Example 131] | 0 | + + | 0 |
| CCCCCCCCCCCCCCn1sc(Cl)c(C)c1=O [Example 106] | 0 | + + | 0 |
| O=c1c(Cl)c(Cl)sn1-c1cc(Cl)cc(Cl)c1 [Example 77] | 0 | + + | 0 |
| Cc1csn(-c2ccc(Cl)c(Cl)c2)c1=O [Example 140] | 0 | + + | 0 |
| O=c1c(Br)c(Cl)sn1CCc1ccc(Cl)cc1 [Example 92] | 0 | + | 0 |
| CCCCCCCCCCCCn1sc(Cl)c(C)c1=O [Example 105] | 0 | + + | + |
| O=c1ccsn1CCc1ccc(Cl)cc1 [Example 9] | 0 | 0 | 0 |
| Cn1sc(Br)c(Br)c1=O [Example 94] | + | 0 | 0 |
| O=c1c(Cl)csn1Cc1ccc(Cl)cc1 [Example 46] | + | + + | 0 |
| O=c1c(Cl)c(Cl)sn1-c1cccc(Cl)c1 [Example 76] | + | + + | 0 |
| CCCCCCCCCCn1sc(Cl)c(Br)c1=O [Example 89] | 0 | + + | 0 |
| CCCCCCCCCCn1sc(Br)c(Br)c1=O [Example 96] | 0 | + + | 0 |
| CCCCCCCCCCCCCCn1sc(Cl)cc1=O [Example 24] | 0 | + + | + + |
| O=c1c(Br)csn1-c1ccc(Cl)cc1 [Example 54] | 0 | + + | 0 |
| CCCCCCCCn1sc(Br)c(C)c1=O [Example 102] | + | 0 | + |
| CCCCCCCCCCCCCCCCn1sc(Cl)cc1=O [Example 25] | 0 | + + | 0 |
| O=c1c(Cl)c(Cl)sn1-c1ccc([N+](=O)[O-])cc1 [Example 82] | 0 | + + | 0 |
| O=c1cc(Cl)sn1-c1ccc(Cl)c(C(F)(F)F)c1 [Example 40] | + | + + | 0 |
| O=c1c(Br)csn1CCc1ccccc1 [Example 52] | 0 | + | 0 |
| O=c1ccsn1-c1ccccc1 [Example 11] | 0 | 0 | 0 |
| Cc1cc(-n2sc(Cl)c(C)c2=O)ccc1Br [Example 133] | 0 | + + | 0 |
| O=c1cc(Cl)sn1-c1ccc(Cl)c(Cl)c1 [Example 37] | + | + + | + |
| Cc1ccc(-n2sc(Cl)c(Cl)c2=O)cc1Cl [Example 81] | 0 | + + | 0 |
| Cc1c(Cl)sn(C)c1=O [Example 100] | 0 | 0 | 0 |
| CCCCCCCCCCCCCCCCCCn1sccc1=O [Example 8] | 0 | + + | 0 |
| CCCCCCCCCCCCn1scc(Br)c1=O [Example 50] | 0 | + + | + |

— patent US4127687A, “Prevention of fouling of marine structures such as boat hulls” (Rohm and Haas Company, priority 1976, dated 1978)
